Laboratory results published in PubChem BioAssay (NCI).
Several values for one entry are separate records, joined by “and”; a condition that tells them apart may be missing. Identical values can stand only once.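 Results reflect a 48-hour exposure of cells in 96-well plates to compound at five concentrations. The concentration for 50% growth inhibition is given as GI50. At the TGI there is no net growth.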

How the values were obtained:
Experiment in all cases: NCI anticancer screen, dose series, 48 h
786-0 renal = system: 786-0 renal
CAKI-1 renal = system: CAKI-1 renal
CCRF-CEM leukemia = system: CCRF-CEM leukemia
HCT-116 colon = system: HCT-116 colon
HT29 colon = system: HT29 colon
KM12 colon = system: KM12 colon
NCI-H460 lung = system: NCI-H460 lung
OVCAR-3 ovarian = system: OVCAR-3 ovarian
U251 CNS = system: U251 CNS
HOP-92 NSCLC = system: HOP-92 NSCLC

Compound | TGI (786-0 renal) [µM] | TGI (CAKI-1 renal) [µM] | TGI (CCRF-CEM leukemia) [µM] | TGI (HCT-116 colon) [µM] | TGI (HT29 colon) [µM] | TGI (KM12 colon) [µM] | TGI (NCI-H460 lung) [µM] | TGI (OVCAR-3 ovarian) [µM] | TGI (U251 CNS) [µM] | GI50 (786-0 renal) [µM] | GI50 (CAKI-1 renal) [µM] | GI50 (HCT-116 colon) [µM] | GI50 (HOP-92 NSCLC) | TGI (HOP-92 NSCLC) | GI50 (HT29 colon) | GI50 (KM12 colon) [µM] | GI50 (NCI-H460 lung) [µM] | GI50 (OVCAR-3 ovarian) [µM] | GI50 (U251 CNS) [µM] | GI50 (CCRF-CEM leukemia) [µM]
COC(=O)C1=C(CS(=O)c2ccccc2[N+](=O)[O-])ON(C)C1c1ccccc1 (stereo not drawn) | > 100 | > 100 | 39.3 | > 100 | > 100 | > 100 | > 100 | > 100 | > 100 | – | – | – | – | – | – | – | – | – | – | –
CCCCCCN(CCCCCC)CC(O)c1ccc2c3c(cccc13)CC2 (stereo not drawn) | 20.2 | 9.35 | – | 13.2 | 13.2 | 18.9 | 17 | 21.6 | 22.4 | 6.15 | 1.96 | 1.68 | 2.16 µM | 9.27 µM | 1.18 µM | 5.3 | 3.36 | 8.96 | 7.44 | –
Cc1cc(N/N=C/c2nc(-c3ccc(Cl)cc3)oc2C)c2cc(Cl)ccc2n1 | 2.99 | 4.33 | 7.18 | 4.59 | 4.95 | 4.6 | – | 3.45 | 3.37 | 1.55 | 2 | 2.14 | 3.53 µM | 16.6 µM | 1.97 µM | 1.97 | – | 1.87 | 1.78 | 1.59
O=c1ccc(=O)c2c(=O)c3ccccc3c(=O)c1=2 | > 100 | > 100 | > 100 | 61.1 | – | > 100 | > 100 | 55.2 | > 100 | – | – | – | – | > 100 µM | – | – | – | – | – | –
CC(=O)OC1[C@H]2c3cc4c(cc3CN3CCC(=C[C@@H]1O)C23)OCO4 (stereo partly drawn) | > 100 | – | > 100 | – | > 100 | > 100 | > 100 | > 100 | > 100 | – | – | – | – | – | – | – | – | – | – | –
Cc1c2cc[n+](C)cc2c(C)c2c1[nH]c1ccc(O)c(OCC(F)(F)F)c12 | 9.35 | 29 | 28.4 | 12.1 | > 55 | – | 48.6 | 7.4 | 7 | – | – | – | – | 17.4 µM | – | – | – | – | – | –
C=C1C(=O)OC2/C=C(\C=O)CC/C=C(\C)C(O)C[C@@H]12 (stereo partly drawn) | 11.6 | – | > 26.5 | 3.46 | 11.6 | 18.5 | 27.4 | 14.5 | 35.4 | – | – | – | – | 17.2 µM | – | – | – | – | – | –
COC(=O)C1=C(C(=O)OC)SC(=C(Cl)C(=S)Sc2ccccc2N)S1 | 36.1 | > 100 | – | 27.7 | > 100 | > 100 | 35.5 | 64.6 | 35.4 | 16.9 | 41.6 | 13.2 | 46.4 µM | > 100 µM | 93.9 µM | > 100 | 19.6 | 28.1 | 18.5 | –
CCN(CC)c1ccc2c(c1)Nc1cc(=C(C#N)C#N)c3ccccc3c1=N2 | > 100 | > 100 | – | > 100 | > 100 | > 100 | > 100 | > 100 | > 100 | – | – | – | – | > 100 µM | – | – | – | – | – | –
O=C1C2Cc3ccccc3CN2C(=O)N1CCN1CCCC1 (stereo not drawn) | > 100 | > 100 | > 100 | – | – | > 100 | > 100 | > 100 | > 100 | – | – | – | – | – | – | – | – | – | – | –
Cc1cc2c(=O)c3ccccc3[nH]c2c(C(=O)O)c1C | > 100 | > 100 | > 100 | > 100 | > 100 | > 100 | > 100 | > 100 | > 100 | – | – | – | – | – | – | – | – | – | – | –
O=C1NC2(CN3CCC2CC3)C(=O)N1CN(Cc1ccccc1)c1ccccc1 (stereo not drawn) | > 100 | > 100 | – | > 100 | > 100 | > 100 | > 100 | > 100 | > 100 | – | – | – | – | > 100 µM | – | – | – | – | – | –
C[C-](O)O.O/C(=C\[C-](O)c1ccccc1)c1ccccc1.O/C(=C\[C-](O)c1ccccc1)c1ccccc1.[Nd+3] (stereo not drawn) | 32.7 | 42.2 | 15.3 | 16.5 | 22.5 | – | 71 | 27.4 | 22.1 | 9.65 | 11.9 | 4.24 | 12.9 µM | 35.3 µM | 10.6 µM | – | 4.99 | 0.363 | 4.46 | 2.21
CCN1CSC(=S)N(CC)C1 | > 100 | – | > 100 | > 100 | > 100 | > 100 | > 100 | > 100 | > 100 | – | – | – | – | > 100 µM | – | – | – | – | – | –
Cc1cc(=O)oc2cc(O)c(CN(C)CC(=O)O)cc12 | > 100 | > 100 | – | > 100 | > 100 | > 100 | > 100 | – | > 100 | – | – | – | – | > 100 µM | – | – | – | – | – | –
Cc1c(Cl)cccc1NC(=O)CC1C(=O)Nc2ccccc2S1(=O)=O (stereo not drawn) | 32.4 | 38.8 | 47.8 | 30.3 | 38.2 | – | 30 | 31.7 | 26.5 | – | – | – | – | 31.7 µM | – | – | – | – | – | –
c1cc(CNC2C3CCC(C3)C2c2c[nH]c3ccccc23)cc(CNC2C3CCC(C3)C2c2c[nH]c3ccccc23)c1 (stereo not drawn) | 27.3 | – | > 100 | – | – | 4.04 | > 100 | – | 1.32 | 14.2 | – | – | 1.09 µM and 1.29 µM | 2.33 µM and 2.63 µM | 0.331 µM and 0.154 µM | – | 0.313 | – | – | –
O=C([CH-]C(=O)C(F)(F)F)c1ccccc1.O=C([CH-]C(=O)C(F)(F)F)c1ccccc1.O=C([CH-]C(=O)C(F)(F)F)c1ccccc1.O=C([CH-]C(=O)C(F)(F)F)c1ccccc1.[Eu+3].c1ccncc1 | > 100 | – | 32.7 | 71 | > 100 | 8.11 | 43.7 | – | > 100 | 11.9 | – | 7.53 | 9.02 µM | 45.6 µM | 6.97 µM | 3.08 | 5.62 | – | 5.02 | 2.64
CN=C1SC(=Nc2ccc(N(C)C)cc2)N1C | > 100 | – | > 100 | > 100 | > 100 | > 100 | > 100 | > 100 | > 100 | – | – | – | – | 53.5 µM | – | – | – | – | – | –
CC(=O)O[C@@H]1C2C(=O)OC(=O)C2C2CCC[C@]23O[C@H]13 (stereo partly drawn) | > 100 | > 100 | > 100 | > 100 | – | > 100 | > 100 | > 100 | > 100 | – | – | – | – | – | – | – | – | – | – | –
